{"source": "ChEMBL document CHEMBL1828614", "about": "“Discovery of a new class of HMG-CoA reductase inhibitor from Polyalthia longifolia as potential lipid lowering agent” (Eur J Med Chem, 2011)", "key": {"Syrian golden hamster [1]": {"tested_on": "Syrian golden hamster", "assay": "Toxicity in Syrian golden hamster assessed as effect of food intake at 25 mg/kg, po", "type": "organism-based, Mesocricetus auratus", "design": "dose 25 mg/kg, route oral", "details": "in vivo"}, "Syrian golden hamster [2]": {"tested_on": "Syrian golden hamster", "assay": "Toxicity in Syrian golden hamster assessed as weight gain at 25 mg/kg, po", "type": "organism-based, Mesocricetus auratus", "design": "dose 25 mg/kg, route oral", "details": "in vivo"}, "[3]": {"assay": "Apparent oral clearance in high fat diet fed Syrian golden hamster at 25 mg/kg, po", "type": "ADME, organism-based, Mesocricetus auratus", "design": "dose 25 mg/kg, route oral", "details": "in vivo"}, "[4]": {"molecular_target": "T1, 3-hydroxy-3-methylglutaryl-coenzyme A reductase (Homo sapiens, UniProt P04035)", "T1 sequence (P04035 whole entry)": "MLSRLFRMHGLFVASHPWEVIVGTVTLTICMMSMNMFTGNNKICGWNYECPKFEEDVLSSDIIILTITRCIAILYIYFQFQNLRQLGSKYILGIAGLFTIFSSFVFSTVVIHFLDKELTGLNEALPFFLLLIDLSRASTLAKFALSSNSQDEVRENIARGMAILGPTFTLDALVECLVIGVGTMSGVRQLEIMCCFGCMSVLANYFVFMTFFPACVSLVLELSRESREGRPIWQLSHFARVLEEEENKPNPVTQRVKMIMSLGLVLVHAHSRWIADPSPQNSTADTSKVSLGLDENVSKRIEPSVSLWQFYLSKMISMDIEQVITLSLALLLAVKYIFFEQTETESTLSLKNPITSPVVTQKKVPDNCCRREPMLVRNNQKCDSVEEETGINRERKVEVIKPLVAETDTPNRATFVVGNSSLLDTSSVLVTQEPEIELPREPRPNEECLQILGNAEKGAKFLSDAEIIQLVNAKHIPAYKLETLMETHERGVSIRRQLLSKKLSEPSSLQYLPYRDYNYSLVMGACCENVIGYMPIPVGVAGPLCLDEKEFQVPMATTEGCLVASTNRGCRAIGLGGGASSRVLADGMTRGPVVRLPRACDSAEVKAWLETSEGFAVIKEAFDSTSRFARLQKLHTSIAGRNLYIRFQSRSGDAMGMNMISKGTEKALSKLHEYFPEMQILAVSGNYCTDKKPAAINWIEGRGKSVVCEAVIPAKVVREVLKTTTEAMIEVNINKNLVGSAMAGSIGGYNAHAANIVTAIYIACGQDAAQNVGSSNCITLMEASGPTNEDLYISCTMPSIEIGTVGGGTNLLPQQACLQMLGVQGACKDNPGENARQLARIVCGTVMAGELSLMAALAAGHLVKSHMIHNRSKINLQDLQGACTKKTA", "assay": "Inhibition of HMG-CoA reductase using HMG-CoA as substrate by spectrophotometry in presence of NADPH"}, "Syrian golden hamster [5]": {"tested_on": "Syrian golden hamster", "assay": "Hypolipidemic activity in high fat diet fed Syrian golden hamster assessed as increase in HDL-cholesterol-total cholesterol ratio at 100 mg/kg, po for 7 days", "type": "functional, Mesocricetus auratus"}, "[6]": {"assay": "Cmax in high fat diet fed Syrian golden hamster at 25 mg/kg, po", "type": "ADME, organism-based, Mesocricetus auratus", "design": "dose 25 mg/kg, route oral", "details": "in vivo"}, "Syrian golden hamster [7]": {"tested_on": "Syrian golden hamster", "assay": "Hypolipidemic activity in high fat diet fed Syrian golden hamster assessed as reduction of glycerol level at 25 mg/kg, po for 7 days", "type": "functional, Mesocricetus auratus", "design": "scale not given: the % may be the effect or the level left"}, "Syrian golden hamster [8]": {"tested_on": "Syrian golden hamster", "assay": "Hypolipidemic activity in high fat diet fed Syrian golden hamster assessed as reduction of triglyceride level at 25 mg/kg, po for 7 days", "type": "functional, Mesocricetus auratus", "design": "scale not given: the % may be the effect or the level left"}, "Syrian golden hamster [9]": {"tested_on": "Syrian golden hamster", "assay": "Hypolipidemic activity in high fat diet fed Syrian golden hamster assessed as reduction of total cholesterol level at 50 mg/kg, po for 7 days", "type": "functional, Mesocricetus auratus", "design": "scale not given: the % may be the effect or the level left"}, "Syrian golden hamster [10]": {"tested_on": "Syrian golden hamster", "assay": "Hypolipidemic activity in high fat diet fed Syrian golden hamster assessed as reduction of total cholesterol level at 5 mg/kg, po for 7 days", "type": "functional, Mesocricetus auratus", "design": "scale not given: the % may be the effect or the level left"}, "Syrian golden hamster [11]": {"tested_on": "Syrian golden hamster", "assay": "Hypolipidemic activity in high fat diet fed Syrian golden hamster assessed as reduction of triglyceride level at 50 mg/kg, po for 7 days", "type": "functional, Mesocricetus auratus", "design": "scale not given: the % may be the effect or the level left"}, "[12]": {"assay": "Tmax in high fat diet fed Syrian golden hamster at 25 mg/kg, po", "type": "ADME, organism-based, Mesocricetus auratus", "design": "dose 25 mg/kg, route oral", "details": "in vivo"}, "Syrian golden hamster [13]": {"tested_on": "Syrian golden hamster", "assay": "Hypolipidemic activity in high fat diet fed Syrian golden hamster assessed as increase in HDL-cholesterol-total cholesterol ratio at 25 mg/kg, po for 7 days", "type": "functional, Mesocricetus auratus"}, "Syrian golden hamster [14]": {"tested_on": "Syrian golden hamster", "assay": "Hypolipidemic activity in high fat diet fed Syrian golden hamster assessed as reduction of glycerol level at 5 mg/kg, po for 7 days", "type": "functional, Mesocricetus auratus", "design": "scale not given: the % may be the effect or the level left"}, "[15]": {"assay": "Mean residence time in high fat diet fed Syrian golden hamster at 25 mg/kg, po", "type": "ADME, organism-based, Mesocricetus auratus", "design": "dose 25 mg/kg, route oral", "details": "in vivo"}, "Syrian golden hamster [16]": {"tested_on": "Syrian golden hamster", "assay": "Hypolipidemic activity in high fat diet fed Syrian golden hamster assessed as reduction of triglyceride level at 10 mg/kg, po for 7 days", "type": "functional, Mesocricetus auratus", "design": "scale not given: the % may be the effect or the level left"}, "Syrian golden hamster [17]": {"tested_on": "Syrian golden hamster", "assay": "Hypolipidemic activity in high fat diet fed Syrian golden hamster assessed as increase in HDL-cholesterol-total cholesterol ratio at 5 mg/kg, po for 7 days", "type": "functional, Mesocricetus auratus"}, "Syrian golden hamster [18]": {"tested_on": "Syrian golden hamster", "assay": "Hypolipidemic activity in high fat diet fed Syrian golden hamster assessed as reduction of glycerol level at 10 mg/kg, po for 7 days", "type": "functional, Mesocricetus auratus", "design": "scale not given: the % may be the effect or the level left"}, "Syrian golden hamster [19]": {"tested_on": "Syrian golden hamster", "assay": "Hypolipidemic activity in high fat diet fed Syrian golden hamster assessed as reduction of glycerol level at 100 mg/kg, po for 7 days", "type": "functional, Mesocricetus auratus", "design": "scale not given: the % may be the effect or the level left"}, "Syrian golden hamster [20]": {"tested_on": "Syrian golden hamster", "assay": "Hypolipidemic activity in high fat diet fed Syrian golden hamster assessed as increase in HDL-cholesterol-total cholesterol ratio at 50 mg/kg, po for 7 days", "type": "functional, Mesocricetus auratus"}, "Syrian golden hamster [21]": {"tested_on": "Syrian golden hamster", "assay": "Hypolipidemic activity in high fat diet fed Syrian golden hamster assessed as reduction of triglyceride level at 5 mg/kg, po for 7 days", "type": "functional, Mesocricetus auratus", "design": "scale not given: the % may be the effect or the level left"}, "Syrian golden hamster [22]": {"tested_on": "Syrian golden hamster", "assay": "Hypolipidemic activity in high fat diet fed Syrian golden hamster assessed as reduction of glycerol level at 50 mg/kg, po for 7 days", "type": "functional, Mesocricetus auratus", "design": "scale not given: the % may be the effect or the level left"}, "Syrian golden hamster [23]": {"tested_on": "Syrian golden hamster", "assay": "Hypolipidemic activity in high fat diet fed Syrian golden hamster assessed as reduction of total cholesterol level at 10 mg/kg, po for 7 days", "type": "functional, Mesocricetus auratus", "design": "scale not given: the % may be the effect or the level left"}, "[24]": {"assay": "AUC (0 to t) in high fat diet fed Syrian golden hamster at 25 mg/kg, po", "type": "ADME, organism-based, Mesocricetus auratus", "design": "dose 25 mg/kg, route oral", "details": "plasma"}, "Syrian golden hamster [25]": {"tested_on": "Syrian golden hamster", "assay": "Hypolipidemic activity in high fat diet fed Syrian golden hamster assessed as reduction of total cholesterol level at 100 mg/kg, po for 7 days", "type": "functional, Mesocricetus auratus", "design": "scale not given: the % may be the effect or the level left"}, "Syrian golden hamster [26]": {"tested_on": "Syrian golden hamster", "assay": "Hypolipidemic activity in high fat diet fed Syrian golden hamster assessed as reduction of total cholesterol level at 25 mg/kg, po for 7 days", "type": "functional, Mesocricetus auratus", "design": "scale not given: the % may be the effect or the level left"}, "Syrian golden hamster [27]": {"tested_on": "Syrian golden hamster", "assay": "Hypolipidemic activity in high fat diet fed Syrian golden hamster assessed as reduction of triglyceride level at 100 mg/kg, po for 7 days", "type": "functional, Mesocricetus auratus", "design": "scale not given: the % may be the effect or the level left"}, "Syrian golden hamster [28]": {"tested_on": "Syrian golden hamster", "assay": "Hypolipidemic activity in high fat diet fed Syrian golden hamster assessed as increase in HDL-cholesterol-total cholesterol ratio at 10 mg/kg, po for 7 days", "type": "functional, Mesocricetus auratus"}, "Syrian golden hamster [29]": {"tested_on": "Syrian golden hamster", "assay": "Apparent volume of distribution in high fat diet fed Syrian golden hamster at 25 mg/kg, po", "type": "ADME, organism-based, Mesocricetus auratus", "design": "dose 25 mg/kg, route oral", "details": "in vivo"}}}
{"smiles": "CC1=CCC[C@@H]2[C@@](C)(CC/C(C=O)=C\\C(=O)O)[C@H](C)CC[C@@]12C", "values": [{"measurement": "Activity", "setting": "Syrian golden hamster [1]", "value": "Non-toxic"}, {"measurement": "Activity", "setting": "Syrian golden hamster [2]", "value": "Non-toxic"}]}
{"smiles": "C=C1[C@@H](O)CC[C@@H]2[C@@](C)(CCC3=CC(=O)O[C@@H]3O)[C@H](C)CC[C@@]12C", "values": [{"measurement": "Activity", "setting": "Syrian golden hamster [1]", "value": "Non-toxic"}, {"measurement": "Activity", "setting": "Syrian golden hamster [2]", "value": "Non-toxic"}]}
{"smiles": "CC1=CCC[C@@H]2[C@@](C)(CCC3=CC(=O)O[C@@H]3O)[C@H](C)CC[C@@]12C", "values": [{"measurement": "CL/F", "setting": "[3]", "value": 72.5, "unit": "mL/min/kg"}, {"measurement": "IC50", "setting": "[4]", "value": 30.2, "unit": "µM"}, {"measurement": "Ratio", "setting": "Syrian golden hamster [5]", "value": 46}, {"measurement": "Cmax", "setting": "[6]", "value": 2490, "unit": "ng/mL"}, {"measurement": "Activity", "setting": "Syrian golden hamster [7]", "value": 37, "unit": "%"}, {"measurement": "Activity", "setting": "Syrian golden hamster [8]", "value": 45, "unit": "%"}, {"measurement": "Activity", "setting": "Syrian golden hamster [9]", "value": 55, "unit": "%"}, {"measurement": "Activity", "setting": "Syrian golden hamster [10]", "value": 27, "unit": "%"}, {"measurement": "Activity", "setting": "Syrian golden hamster [11]", "value": 46, "unit": "%"}, {"measurement": "Tmax", "setting": "[12]", "value": 30, "unit": "min"}, {"measurement": "Ratio", "setting": "Syrian golden hamster [13]", "value": 48}, {"measurement": "Activity", "setting": "Syrian golden hamster [14]", "value": 10, "unit": "%"}, {"measurement": "MRT", "setting": "[15]", "value": 4.52, "unit": "h"}, {"measurement": "Activity", "setting": "Syrian golden hamster [16]", "value": 26, "unit": "%"}, {"measurement": "Ratio", "setting": "Syrian golden hamster [17]", "value": 12}, {"measurement": "Activity", "setting": "Syrian golden hamster [18]", "value": 5, "unit": "%"}, {"measurement": "Activity", "setting": "Syrian golden hamster [19]", "value": 43, "unit": "%"}, {"measurement": "Ratio", "setting": "Syrian golden hamster [20]", "value": 54}, {"measurement": "Activity", "setting": "Syrian golden hamster [21]", "value": 19, "unit": "%"}, {"measurement": "Activity", "setting": "Syrian golden hamster [1]", "value": "Non-toxic"}, {"measurement": "Activity", "setting": "Syrian golden hamster [22]", "value": 48, "unit": "%"}, {"measurement": "Activity", "setting": "Syrian golden hamster [23]", "value": 23, "unit": "%"}, {"measurement": "AUC(0-t)", "setting": "[24]", "value": 5740, "unit": "ng·h/mL"}, {"measurement": "Activity", "setting": "Syrian golden hamster [2]", "value": "Non-toxic"}, {"measurement": "Activity", "setting": "Syrian golden hamster [25]", "value": 54, "unit": "%"}, {"measurement": "Activity", "setting": "Syrian golden hamster [26]", "value": 41, "unit": "%"}, {"measurement": "Activity", "setting": "Syrian golden hamster [27]", "value": 43, "unit": "%"}, {"measurement": "Ratio", "setting": "Syrian golden hamster [28]", "value": 12}, {"measurement": "Vz", "setting": "Syrian golden hamster [29]", "value": 17.78, "unit": "L/kg"}]}
{"smiles": "CC1=C(C=O)CC2[C@@]1(C)CC[C@@H](C)[C@]2(C)CCC1=CC(=O)O[C@@H]1O", "note": "(mixture of isomers)", "values": [{"measurement": "Activity", "setting": "Syrian golden hamster [1]", "value": "Non-toxic"}, {"measurement": "Activity", "setting": "Syrian golden hamster [2]", "value": "Non-toxic"}]}
{"smiles": "CC[C@H](C)C(=O)O[C@H]1C[C@@H](C)C=C2C=C[C@H](C)[C@H](CC[C@@H]3C[C@@H](O)CC(=O)O3)[C@H]21", "note": "[LOVASTATIN]", "values": [{"measurement": "Activity", "setting": "Syrian golden hamster [7]", "value": 35, "unit": "%"}, {"measurement": "Activity", "setting": "Syrian golden hamster [8]", "value": 29, "unit": "%"}, {"measurement": "Activity", "setting": "Syrian golden hamster [26]", "value": 9, "unit": "%"}]}
